pEC50: −log10 of the molar value.
Target: T1, ΔF508-CFTR (Homo sapiens, UniProt P13569, DEL508-508)
T1 construct: expressed in transfected cells
Assay: Membrane potential optical (FRET/VIPR) assay, identification of potentiator compounds
Assay type: cell-based
Conditions: Table 3, assay not given; for % Activity: relative efficacy
In short: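 NIH3T3 mouse fibroblasts stably expressing ΔF508-CFTR, temperature-corrected 24 h at 27° C., read on VIPR by FRET between CC2-DMPE and DiSBAC2(3). Potentiators identified in a double-addition format, first adding chloride-free (gluconate) medium with or without compound.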

T1 sequence (P13569 with tags, fused parts or gaps DEL508-508): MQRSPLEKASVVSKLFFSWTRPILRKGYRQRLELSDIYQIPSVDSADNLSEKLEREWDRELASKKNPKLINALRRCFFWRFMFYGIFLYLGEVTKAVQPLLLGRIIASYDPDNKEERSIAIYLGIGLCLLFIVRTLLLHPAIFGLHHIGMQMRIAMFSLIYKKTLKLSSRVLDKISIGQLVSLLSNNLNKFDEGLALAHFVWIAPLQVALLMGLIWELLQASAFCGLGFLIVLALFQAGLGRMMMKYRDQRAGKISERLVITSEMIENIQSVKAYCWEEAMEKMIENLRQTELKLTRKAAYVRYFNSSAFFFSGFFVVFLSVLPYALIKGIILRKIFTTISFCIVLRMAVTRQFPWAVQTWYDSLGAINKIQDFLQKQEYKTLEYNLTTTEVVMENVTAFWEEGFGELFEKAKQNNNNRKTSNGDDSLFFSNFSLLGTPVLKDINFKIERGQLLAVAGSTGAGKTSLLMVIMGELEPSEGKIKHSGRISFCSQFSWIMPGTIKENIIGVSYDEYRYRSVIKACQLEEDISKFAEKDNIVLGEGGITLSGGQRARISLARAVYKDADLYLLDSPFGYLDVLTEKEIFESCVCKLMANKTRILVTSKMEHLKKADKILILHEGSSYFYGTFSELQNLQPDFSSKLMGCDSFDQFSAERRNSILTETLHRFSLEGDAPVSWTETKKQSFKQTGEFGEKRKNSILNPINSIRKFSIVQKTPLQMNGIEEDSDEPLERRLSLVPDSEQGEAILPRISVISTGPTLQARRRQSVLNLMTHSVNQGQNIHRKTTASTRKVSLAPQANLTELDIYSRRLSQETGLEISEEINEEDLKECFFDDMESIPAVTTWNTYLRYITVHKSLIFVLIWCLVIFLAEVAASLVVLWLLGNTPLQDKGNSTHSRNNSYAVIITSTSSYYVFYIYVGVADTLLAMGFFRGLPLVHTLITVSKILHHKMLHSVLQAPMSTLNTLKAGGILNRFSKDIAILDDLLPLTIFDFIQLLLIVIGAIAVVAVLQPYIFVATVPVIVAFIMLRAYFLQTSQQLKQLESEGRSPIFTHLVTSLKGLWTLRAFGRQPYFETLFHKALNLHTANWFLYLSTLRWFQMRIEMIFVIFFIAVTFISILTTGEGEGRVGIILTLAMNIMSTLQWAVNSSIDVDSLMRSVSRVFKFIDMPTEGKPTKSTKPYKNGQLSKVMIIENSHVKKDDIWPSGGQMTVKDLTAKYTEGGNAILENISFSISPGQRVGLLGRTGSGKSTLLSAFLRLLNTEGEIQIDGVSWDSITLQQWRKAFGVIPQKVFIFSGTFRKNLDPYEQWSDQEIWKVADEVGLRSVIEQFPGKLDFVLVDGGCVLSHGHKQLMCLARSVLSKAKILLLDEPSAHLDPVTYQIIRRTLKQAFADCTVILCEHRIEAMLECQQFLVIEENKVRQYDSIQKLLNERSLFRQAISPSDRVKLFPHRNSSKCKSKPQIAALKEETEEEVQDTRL

| SMILES | pEC50 | % Activity |
| --- | --- | --- |
| CC(=O)c1ccccc1NC(=O)c1c[nH]c2ccccc2c1=O [Compound 365, N-(2-acetylphenyl)-4-oxo-1H-quinoline-3-carboxamide] | 4.60 to 5.00 | ++ (between 25% to 100%) |
| O=C(Nc1ccccc1-c1ccc(C(F)(F)F)cc1)c1c[nH]c2ccccc2c1=O [Compound 366, 4-oxo-N-[2-[4-(trifluoromethyl)phenyl]phenyl]-1H-quinoline-3-carboxamide] | > 5.00 | ++ (between 25% to 100%) |
| O=C(Nc1ccccc1-c1cc(Cl)cc(Cl)c1)c1c[nH]c2ccccc2c1=O [Compound 367, N-[2-(3,5-dichlorophenyl)phenyl]-4-oxo-1H-quinoline-3-carboxamide] | > 5.00 | ++ (between 25% to 100%) |
| CCCOc1ccc(NC(=O)c2c[nH]c3ccccc3c2=O)cc1N [Compound 368, N-(3-amino-4-propoxy-phenyl)-4-oxo-1H-quinoline-3-carboxamide] | > 5.00 | ++ (between 25% to 100%) |
| N#Cc1cc(Cl)cc(Cl)c1NC(=O)c1c[nH]c2ccccc2c1=O [Compound 369, N-(2,4-dichloro-6-cyano-phenyl)-4-oxo-1H-quinoline-3-carboxamide] | 4.60 to 5.00 | + (<25%) |
| O=C(Nc1cccc(Cl)c1)c1c[nH]c2ccccc2c1=O [Compound 370, N-(3-chlorophenyl)-4-oxo-1H-quinoline-3-carboxamide] | > 5.00 | ++ (between 25% to 100%) |
| O=C(Nc1ccccc1SC(F)(F)F)c1c[nH]c2ccccc2c1=O [Compound 371, 4-oxo-N-[2-(trifluoromethylsulfanyl)phenyl]-1H-quinoline-3-carboxamide] | > 5.00 | ++ (between 25% to 100%) |
| CC1CCN(c2ccccc2NC(=O)c2c[nH]c3ccccc3c2=O)CC1 [Compound 372, N-[2-(4-methyl-1-piperidyl)phenyl]-4-oxo-1H-quinoline-3-carboxamide] | > 5.00 | ++ (between 25% to 100%) |
| O=C(Nc1cccc2c1CCC2)c1c[nH]c2ccccc2c1=O [Compound 373, N-indan-4-yl-4-oxo-1H-quinoline-3-carboxamide] | > 5.00 | ++ (between 25% to 100%) |
| CSc1nc2ccccc2c(O)c1C(=O)Nc1ccc2cc[nH]c2c1 [Compound 374, 4-hydroxy-N-(1H-indol-6-yl)-2-methylsulfanyl-quinoline-3-carboxamide] | 4.22 to 4.60 | + (<25%) |
| O=C(Nc1ccc2c(c1)CCCC2)c1c[nH]c2ccccc2c1=O [Compound 375, 1,4-dihydro-N-(1,2,3,4-tetrahydronaphthalen-6-yl)-4-oxoquinoline-3-carboxamide] | > 5.00 | ++ (between 25% to 100%) |
| O=C(Nc1ccc2oc(-c3ccccc3)nc2c1)c1c[nH]c2ccccc2c1=O [Compound 376, 4-oxo-N-(2-phenylbenzooxazol-5-yl)-1H-quinoline-3-carboxamide] | 4.22 to 4.60 | + (<25%) |
| O=C(Nc1ccc2cc[nH]c2c1)c1cnc2c(F)cc(F)cc2c1O [Compound 377, 6,8-difluoro-4-hydroxy-N-(1H-indol-6-yl)quinoline-3-carboxamide] | 4.60 to 5.00 | ++ (between 25% to 100%) |
| COc1ccc(NC(=O)c2c[nH]c3ccccc3c2=O)cc1N [Compound 378, N-(3-amino-4-methoxy-phenyl)-4-oxo-1H-quinoline-3-carboxamide] | 4.60 to 5.00 | ++ (between 25% to 100%) |
| CC(=O)Nc1cc(NC(=O)c2c[nH]c3ccccc3c2=O)cc(C(F)(F)F)c1 [Compound 379, N-[3-acetylamino-5-(trifluoromethyl)phenyl]-4-oxo-1H-quinoline-3-carboxamide] | 4.60 to 5.00 | ++ (between 25% to 100%) |
| CCOc1ccccc1NC(=O)c1c[nH]c2ccccc2c1=O [Compound 380, N-(2-ethoxyphenyl)-4-oxo-1H-quinoline-3-carboxamide] | > 5.00 | ++ (between 25% to 100%) |
| CC(C)(C)c1cc2cc[nH]c2cc1NC(=O)c1c[nH]c2ccccc2c1=O [Compound 381, 4-oxo-N-(5-tert-butyl-1H-indol-6-yl)-1H-quinoline-3-carboxamide] | > 5.00 | ++ (between 25% to 100%) |
| CCCc1ccc(NC(=O)c2c[nH]c3ccccc3c2=O)cc1NC(=O)OCC [Compound 382, [5-[(4-oxo-1H-quinolin-3-yl)carbonylamino]-2-propyl-phenyl]aminoformic acid ethyl ester] | > 5.00 | ++ (between 25% to 100%) |
| CCc1c[nH]c2cc(NC(=O)c3c[nH]c4ccccc4c3=O)ccc12 [Compound 383, N-(3-ethyl-1H-indol-6-yl)-4-oxo-1H-quinoline-3-carboxamide] | > 5.00 | ++ (between 25% to 100%) |
| O=C(Nc1ccccc1-c1cc(F)ccc1F)c1c[nH]c2ccccc2c1=O [Compound 384, N-[2-(2,5-difluorophenyl)phenyl]-4-oxo-1H-quinoline-3-carboxamide] | > 5.00 | ++ (between 25% to 100%) |
| O=C(Nc1cccnc1Oc1ccc(F)cc1F)c1c[nH]c2ccccc2c1=O [Compound 385, N-[2-(2,4-difluorophenoxy)-3-pyridyl]-4-oxo-1H-quinoline-3-carboxamide] | – | ++ (between 25% to 100%) |
| CC1(C)CNc2cc(NC(=O)c3c[nH]c4ccccc4c3=O)ccc21 [Compound 386, N-(3,3-dimethylindolin-6-yl)-4-oxo-1H-quinoline-3-carboxamide] | > 5.00 | ++ (between 25% to 100%) |
| Cc1c(NC(=O)c2c[nH]c3ccccc3c2=O)cccc1C(F)(F)F [Compound 387, N-[2-methyl-3-(trifluoromethyl)phenyl]-4-oxo-1H-quinoline-3-carboxamide] | > 5.00 | ++ (between 25% to 100%) |
| O=C(Nc1ccccc1-c1ccc(OC(F)(F)F)cc1)c1c[nH]c2ccccc2c1=O [Compound 388, 4-oxo-N-[2-[4-(trifluoromethoxy)phenyl]phenyl]-1H-quinoline-3-carboxamide] | > 5.00 | ++ (between 25% to 100%) |
| O=C(Nc1cccc(Cc2ccccc2)c1)c1c[nH]c2ccccc2c1=O [Compound 389, N-(3-benzylphenyl)-4-oxo-1H-quinoline-3-carboxamide] | > 5.00 | ++ (between 25% to 100%) |
| CC(C)(C)c1ccc(NC(=O)c2c[nH]c3ccccc3c2=O)cc1CN [Compound 390, N-[3-(Aminomethyl)-4-tert-butyl-phenyl]-4-oxo-1H-quinoline-3-carboxamide] | 4.22 to 4.60 | + (<25%) |
| CC(C)Cc1ccc(-c2ccccc2NC(=O)c2c[nH]c3ccccc3c2=O)cc1 [Compound 391, N-[2-(4-isobutylphenyl)phenyl]-4-oxo-1H-quinoline-3-carboxamide] | > 5.00 | ++ (between 25% to 100%) |
| O=C(Nc1ccc(Cl)nc1)c1c[nH]c2ccccc2c1=O [Compound 392, N-(6-chloro-3-pyridyl)-4-oxo-1H-quinoline-3-carboxamide] | 4.22 to 4.60 | + (<25%) |

From patent US8614327B2 (Vertex Pharmaceuticals Incorporated, priority 2004, dated 2013)
